Source: patent publication US10988474B2, “Compounds acting at multiple prostaglandin receptors giving a general anti-inflammatory response” (ALLERGAN, INC., priority 2011, dated 2021)

Columns and labels:
Type in all cases: cell-based
[1] = target: T1, human prostanoid FP receptor (Homo sapiens, UniProt P43088); experiment: FLIPR Ca2+ signaling PG antagonist assay, FP stable cell line; details: HEK-293 EBNA cells, human recombinant FP, no exogenous G-protein; standard agonist 17-phenyl-PGF2α
T1 construct: expressed in transfected cells
Procedure, shortened: (§1)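 Stable HEK-293 EBNA lines (DP1 with chimeric Gqs, EP3 with Gqi, EP1 and FP without exogenous G protein) were Fluo-4AM-loaded and pretreated 4.5 min at 37 °C with compound (0.1–30 μM). Agonist (BW 245C for DP1, PGE2 for EP1/EP3, 17-phenyl-PGF2α for FP) was then added at 10^−11–10^−5 M. Peak Ca2+ fluorescence was taken relative to agonist at 10^−6 M.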

[2] = target: T2, human prostanoid DP1 receptor (Homo sapiens, UniProt Q13258); experiment: FLIPR Ca2+ signaling PG antagonist assay, DP1 stable cell line; details: HEK-293 EBNA cells, human recombinant DP1 with chimeric Gqs; standard agonist BW 245C; read-out: DP (Kb, PG antagonist activity)
T2 construct: expressed in transfected cells
T2 sequence (Q13258 1-359): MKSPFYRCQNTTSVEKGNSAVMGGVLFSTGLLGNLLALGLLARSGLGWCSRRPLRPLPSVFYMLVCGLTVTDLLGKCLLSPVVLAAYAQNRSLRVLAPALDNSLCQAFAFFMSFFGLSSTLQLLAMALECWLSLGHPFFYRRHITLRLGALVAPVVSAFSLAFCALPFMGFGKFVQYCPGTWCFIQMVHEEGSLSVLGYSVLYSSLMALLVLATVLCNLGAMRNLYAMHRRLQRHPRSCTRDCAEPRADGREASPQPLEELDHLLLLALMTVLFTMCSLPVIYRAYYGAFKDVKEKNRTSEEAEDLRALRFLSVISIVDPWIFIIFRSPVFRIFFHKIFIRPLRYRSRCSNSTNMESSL
Procedure, shortened: as §1

[3] = target: T3, human prostanoid EP1 receptor (Homo sapiens, UniProt P34995); experiment: FLIPR Ca2+ signaling PG antagonist assay, EP1 stable cell line; details: HEK-293 EBNA cells, human recombinant EP1, no exogenous G-protein; standard agonist PGE2
T3 construct: expressed in transfected cells
T3 sequence (P34995 1-402): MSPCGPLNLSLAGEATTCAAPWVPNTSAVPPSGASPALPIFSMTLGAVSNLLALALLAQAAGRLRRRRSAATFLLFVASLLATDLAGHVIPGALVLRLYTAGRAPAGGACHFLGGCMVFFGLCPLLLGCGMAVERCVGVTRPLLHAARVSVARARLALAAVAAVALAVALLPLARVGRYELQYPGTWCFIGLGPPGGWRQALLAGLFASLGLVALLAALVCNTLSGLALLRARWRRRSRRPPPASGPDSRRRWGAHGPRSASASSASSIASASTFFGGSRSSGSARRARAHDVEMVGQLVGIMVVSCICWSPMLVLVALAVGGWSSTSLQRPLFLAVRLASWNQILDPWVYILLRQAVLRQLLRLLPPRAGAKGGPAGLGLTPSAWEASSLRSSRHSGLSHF
Procedure, shortened: as §1

[4] = target: T4, human prostanoid EP2 receptor (Homo sapiens, UniProt P43116); experiment: FLIPR Ca2+ signaling PG antagonist assay, EP2 stable cell line; details: HEK-293 EBNA cells, human recombinant EP2 with chimeric Gqs; standard agonist PGE2
T4 construct: expressed in transfected cells
Procedure, shortened: (§2)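 HEK-293 EBNA stable lines; EP2 co-expressed with chimeric Gqs, EP1/IP/TP with no exogenous G protein. Fluo-4AM-loaded cells pretreated 4.5 min at 37 °C with compound (0.1–30 μM; TP 0.067–1 μM), then standard agonist (PGE2, cicaprost, U-46619) 10^−11–10^−5 M (TP 10^−12–10^−6 M); peak fluorescence read 3.5 min, nonlinear regression.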

[5] = target: T5, human prostanoid EP4 receptor (Homo sapiens, UniProt P35408); experiment: FLIPR Ca2+ signaling PG antagonist assay, EP4 stable cell line; details: HEK-293 EBNA cells, human recombinant EP4 with chimeric Gqs; standard agonist PGE2
T5 construct: expressed in transfected cells
Procedure, shortened: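 Antagonism at human EP4 was assessed as a Ca^2+ signal in stable HEK-293 EBNA transfectants carrying chimeric Gqs. Dye-loaded cells in HBSS-HEPES at 37° C received test compound, then a 7-point 10-fold PGE2 series. Fluorescence was excited at 470-495 nm and read at 515-575 nm for 3.5 minutes, with each condition run in triplicate and buffer used as the negative control.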

[6] = target: T6, human prostanoid IP receptor (Homo sapiens, UniProt P43119); experiment: FLIPR Ca2+ signaling PG antagonist assay, IP stable cell line; details: HEK-293 EBNA cells, human recombinant IP, no exogenous G-protein; standard agonist Cicaprost
T6 construct: expressed in transfected cells
Procedure, shortened: as §2

T6 sequence (P43119 whole entry): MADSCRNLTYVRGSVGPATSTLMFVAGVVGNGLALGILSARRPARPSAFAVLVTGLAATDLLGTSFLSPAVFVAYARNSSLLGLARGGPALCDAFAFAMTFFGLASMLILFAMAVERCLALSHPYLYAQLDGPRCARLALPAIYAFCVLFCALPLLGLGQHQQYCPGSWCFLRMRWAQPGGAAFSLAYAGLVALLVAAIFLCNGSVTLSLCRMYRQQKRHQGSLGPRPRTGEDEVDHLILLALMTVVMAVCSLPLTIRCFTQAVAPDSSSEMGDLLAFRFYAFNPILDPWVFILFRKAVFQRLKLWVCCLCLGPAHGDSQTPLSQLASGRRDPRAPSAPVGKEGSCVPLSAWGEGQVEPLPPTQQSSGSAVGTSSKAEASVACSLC
T4 sequence (P43116 whole entry): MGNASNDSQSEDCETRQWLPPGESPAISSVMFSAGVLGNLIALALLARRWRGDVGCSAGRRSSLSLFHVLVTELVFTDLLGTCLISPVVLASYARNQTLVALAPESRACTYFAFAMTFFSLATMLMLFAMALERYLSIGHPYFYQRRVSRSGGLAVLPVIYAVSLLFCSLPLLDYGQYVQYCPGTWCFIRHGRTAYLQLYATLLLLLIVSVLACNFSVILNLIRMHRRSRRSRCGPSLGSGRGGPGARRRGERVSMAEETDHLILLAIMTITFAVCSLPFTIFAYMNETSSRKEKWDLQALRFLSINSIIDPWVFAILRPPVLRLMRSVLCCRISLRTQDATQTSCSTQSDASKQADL
T5 sequence (P35408 whole entry): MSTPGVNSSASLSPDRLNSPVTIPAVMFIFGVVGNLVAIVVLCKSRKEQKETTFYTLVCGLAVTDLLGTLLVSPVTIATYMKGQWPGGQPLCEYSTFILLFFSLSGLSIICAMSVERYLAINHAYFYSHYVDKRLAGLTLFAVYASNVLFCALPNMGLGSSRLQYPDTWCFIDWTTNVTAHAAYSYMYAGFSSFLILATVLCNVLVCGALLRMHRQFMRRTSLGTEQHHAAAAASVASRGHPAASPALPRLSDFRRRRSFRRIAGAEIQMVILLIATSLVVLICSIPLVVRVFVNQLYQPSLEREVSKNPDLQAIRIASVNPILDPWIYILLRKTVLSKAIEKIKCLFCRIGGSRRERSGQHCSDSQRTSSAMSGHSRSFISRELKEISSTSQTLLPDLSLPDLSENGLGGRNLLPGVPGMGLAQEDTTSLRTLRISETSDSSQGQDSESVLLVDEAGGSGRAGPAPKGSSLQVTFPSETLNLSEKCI
T1 sequence (P43088 whole entry): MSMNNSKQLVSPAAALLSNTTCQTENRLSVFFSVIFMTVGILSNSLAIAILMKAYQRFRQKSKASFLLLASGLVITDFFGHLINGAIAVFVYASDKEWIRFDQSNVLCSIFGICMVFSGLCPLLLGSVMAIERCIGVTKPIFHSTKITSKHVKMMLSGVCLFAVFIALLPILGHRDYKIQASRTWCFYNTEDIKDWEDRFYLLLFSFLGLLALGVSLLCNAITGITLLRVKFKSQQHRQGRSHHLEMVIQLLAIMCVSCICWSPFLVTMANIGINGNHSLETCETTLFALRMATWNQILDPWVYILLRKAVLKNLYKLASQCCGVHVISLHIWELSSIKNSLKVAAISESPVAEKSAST

| Compound | Kb [1] | Kb [2] | Kb [3] | Kb [4] | Kb [5] | Kb [6] |
| --- | --- | --- | --- | --- | --- | --- |
| O=C(O)c1ccc2cn(Cc3cc(Br)ccc3OCC3CCCC3)nc2c1 [Example 45, 2-(5-Bromo-2-Cyclopentylmethoxy-Benzyl)-2H-Indazole-6-Carboxylic Acid] | 1.4 µM | 2.8 µM | 0.023 µM | ≥ 10 µM | 2 µM | 7 µM |
| CC(C)COc1ccc(Cl)cc1Cn1cc2cc(C(=O)O)ccc2n1 [Example 16, 2-(5-Chloro-2-Isobutoxy-Benzyl)-2H-Indazole-5-Carboxylic Acid] | 3 µM | 1.5 µM | 0.09 µM | ≥ 10 µM | 0.6 µM | 6.6 µM |
| CC(C)(C)COc1ccc(Br)cc1Cn1ncc2cc(C(=O)O)ccc21 [Example 52, 1-[5-Bromo-2-(2,2-Dimethyl-Propoxy)-Benzyl]-1H-Indazole-5-Carboxylic Acid] | 0.011 µM | 2.3 µM | 0.024 µM | 3.8 µM | 0.01 µM | ≥ 10 µM |
| CCC(CC)COc1ccc(Br)cc1Cn1ccc2cc(C(=O)O)ccc21 [Example 69, 1-[5-Bromo-2-(2-Ethyl-Butoxy)-Benzyl]-1H-Indole-5-Carboxylic Acid] | 0.8 µM | 3.7 µM | 0.25 µM | ≥ 10 µM | 0.13 µM | 3 µM |
